Data published in article PMC10885153, “Membrane Permeability in a Large Macrocyclic Peptide Driven by a Saddle-Shaped Conformation” (Journal of the American Chemical Society, 2024).
≈ marks a conversion by molar mass, not a printed value. Each block holds one compound with its values, some of them ahead of it. Positions of bridges follow the written chain, without caps; N, C: chain ends. Non-standard residues stand in square brackets, D forms with d. Residues, ends and D or L forms follow the SMILES beside them. Cha = N[C@@H](CC1CCCCC1)C(=O)O; NMeC = CN[C@@H](CS)C(=O)O; NMeA = CN[C@@H](C)C(=O)O; dAbu = CC[C@@H](N)C(=O)O; dNMeA = CN[C@H](C)C(=O)O; Nva = CCC[C@H](N)C(=O)O; Abu = CC[C@H](N)C(=O)O; Nleu = CC(C)CNCC(=O)O; NPrGly = CCCNCC(=O)O; NEtG = CCNCC(=O)O

Key:
[1] = in vitro; conditions: PAMPA
Method: (§1) assay was carried out with a 96-well donor plate with 0.45 μ hydrophobic Immobilon-P membrane supports
(Millipore MAIPNTR10) and a 96-well Teflon acceptor plate (Millipore MSSACCEPTOR). The PAMPA
protocol then proceeded as follows:
(§2) Donor well solutions were prepared to a volume of 1 000 µL with the analytes as a solution in 1X
(§3) PBS pH 7.4 and 5% DMSO. To a 3 mL Eppendorf tube was added 950 µL of 1X PBS pH 7.4, 40
Analyte – 10 µM per compound
(§4) sonicated (5 min) to ensure full dissolution of the lecithin. The donor membrane plate was turned
(§5) upside down and bottom of the membranes exposed. 5 µL of the 1% soy lecithin solution in
(§6) dodecane was then placed on the bottom of the membrane, allowing the drop to spread across the
full area of the membrane. Any membranes with visible damage were not used in the assay. The
(§7) membranes were allowed to equilibrate for 5 min before loading.
3. Each well within the Teflon block acceptor plate that was to be used in the assay was then loaded
(§8) with 300 µL of 1X PBS pH 7.4 and 5% DMSO.
(§9) Working without break, 150 µL of each donor well solution was transferred from the to the 96-well
(§10) donor plate. Each mixture of interest was r un in quadruplicate, using a new well for each replicate.
(§11) As soon as the 96-well donor plate was finished being loaded, it was gently placed into the 96-well
(§12) Teflon acceptor plate, taking care not to trap any air bubbles beneath the membrane.
(§13) The donor/acceptor plates were covered gently with the lid to minimize evaporation and transferred
(§14) gently as a system to a sealed chamber and left to sit overnight at room temperature. The chamber
(§15) was kept from drying by placing a wet paper towel within to prevent evaporation.
(§16) After ~19-20 hours the donor plate was removed from the acceptor plate.
(§17) 50 µL of each well (donor and acceptor) were transferred to a 96 -well plate and diluted with 50 µL
(§18) of methanol prior to heat sealing and quantification by UPLC -MS.

[2] = in vitro; conditions: dog, pH 7.4
[3] = PAMPA, compounds measured in multiplex as mixtures (primary protocol); conditions: for Papp at 10 µM: PAMPA, pH 7.4, PAMPA Papp; for Papp at 10 µM / PAMPA Papp: internal standard, 10 µM; for PAMPA Pe_avg: Stereoscan Library A (Scaffold A), average
Method: (§19) Passive permeabilities of the 36 compounds were measured in multiplex as mixtures of six compounds each using the parallel artificial membrane permeability assay (PAMPA).[44]−[46]
(§20) Protocol is identical for both mixture and pure compound analysis.
(§21) Two of the following: Carbamazepine (CBZ), propranolol (Prop), and 1NMe35 were
(§22) included as internal standards and prepared as DMSO stocks at a concentration of 2 000 µM.
as §1
(§23) (Millipore MAIPNTR10) and a 96-well Teflon acceptor plate (Millipore MSSACCEPTOR).
protocol then proceeded as follows:
as §2, §3
(§24) The solutions were vortexed and set aside.
Analyte – 10 µM per compound
(§25) A 1% solution of soy lecithin in dodecane was freshly prepared in a 3 mL Eppendorf tube and
as §4, §5, §6
(§26) full area of the membrane. Any membranes with visible damage were not used in the assay.
as §7
(§27) Each well within the Teflon block acceptor plate that was to be used in the assay was then loaded
as §8, §9, §10, §11, §12, §13, §14, §15, §16, §17, §18

[4] = PAMPA, 10 µM, pH 7.4
Method: as §19, §20, §21, §22, §1, §23
protocol then proceeded as follows:
as §2, §3, §24
Analyte – 10 µM per compound
as §25, §4, §5, §6, §26, §7, §27, §8, §9, §10, §11, §12, §13, §14, §15, §16, §17, §18

[5] = physchem; conditions: pH 7.4, aqueous with cosolvent or surfactant or cyclodextrin, kinetic from dmso stock
Method: Kinetic Solubility PBS Protocol
4 µL of 10 mM compound in DMSO stock was added to 196 µL 1 X PBS pH 7.4 in a 96 -well microplate to
get a final concentration of 200 µM to shake for 24 hours at 1000 rpm. The sample was filtered sample
using a 96-Multiscreen HTS filter plate (Millipore MSSL BPC50) and a positive pressure manifold.

[6] = pH 7.4, Permeability (Papp) PAMPA (indiv.)

Structure (SMILES): CCOC(=O)[C@@H]1CSCC(=O)N[C@H](CC)C(=O)N(CC(C)C)CC(=O)N[C@@H](CC(C)C)C(=O)N(C)[C@H](C)C(=O)N(C)[C@@H](C)C(=O)N[C@H](CC(C)C)C(=O)N(C)[C@H](C)C(=O)N[C@@H](CC(C)C)C(=O)N1C [B1, O=C([C@@H](NC([C@H](N(C([C@H](NC([C@@H](N(C([C@H](N(C)C([C@@H](NC(CN1CC(C)C)=O)CC(C)C)=O)C)=O)C)C)=O)CC(C)C)=O)C)C)=O)CC(C)C)N([C@@H](CSCC(N[C@H](CC)C1=O)=O)C(OCC)=O)C] ({CH2CO}-[dAbu][Nleu]L[dNMeA][NMeA][dL][dNMeA]L[NMeC]-OEt; thioether N-9)
Papp at 10 µM ([1]; pH 7.4, PAMPA Papp): 10.1 ×10⁻⁶ cm/s | Papp at 10 µM ([1]; pH 7.4, Papp): ~10 ×10⁻⁶ cm/s | Papp at 3 h, 10 µM ([2]; MDCK): 1.3 ×10⁻⁶ cm/s | Papp A→B at 3 h, 10 µM [2]: 1.27 ×10⁻⁶ cm/s

Structure (SMILES): CCOC(=O)[C@@H]1CSCC(=O)N[C@@H](CC)C(=O)N(CC(C)C)CC(=O)N[C@@H](CC(C)C)C(=O)N(C)[C@H](C)C(=O)N(C)[C@@H](C)C(=O)N[C@H](CC(C)C)C(=O)N(C)[C@H](C)C(=O)N[C@@H](CC(C)C)C(=O)N1C [B1-1L, O=C([C@@H](NC([C@H](N(C([C@H](NC([C@@H](N(C([C@H](N(C)C([C@@H](NC(CN1CC(C)C)=O)CC(C)C)=O)C)=O)C)C)=O)CC(C)C)=O)C)C)=O)CC(C)C)N([C@@H](CSCC(N[C@@H](CC)C1=O)=O)C(OCC)=O)C] ({CH2CO}-[Abu][Nleu]L[dNMeA][NMeA][dL][dNMeA]L[NMeC]-OEt; thioether N-9)
Papp at 10 µM ([1]; pH 7.4, PAMPA Papp): 0.5 ×10⁻⁶ cm/s | Papp at 10 µM ([1]; pH 7.4, PAMPA Pe_avg): 0.455 ×10⁻⁶ cm/s | Papp A→B at 3 h, 10 µM [2]: 0.03 ×10⁻⁶ cm/s

Structure (SMILES): CCOC(=O)[C@@H]1CSCC(=O)N[C@H](CC)C(=O)N(CC(C)C)CC(=O)N[C@H](CC(C)C)C(=O)N(C)[C@H](C)C(=O)N(C)[C@@H](C)C(=O)N[C@H](CC(C)C)C(=O)N(C)[C@H](C)C(=O)N[C@@H](CC(C)C)C(=O)N1C [B1-3D, O=C([C@@H](NC([C@H](N(C([C@H](NC([C@@H](N(C([C@H](N(C)C([C@H](NC(CN1CC(C)C)=O)CC(C)C)=O)C)=O)C)C)=O)CC(C)C)=O)C)C)=O)CC(C)C)N([C@@H](CSCC(N[C@H](CC)C1=O)=O)C(OCC)=O)C] ({CH2CO}-[dAbu][Nleu][dL][dNMeA][NMeA][dL][dNMeA]L[NMeC]-OEt; thioether N-9)
Papp at 10 µM ([1]; pH 7.4, PAMPA Papp): 1.5 ×10⁻⁶ cm/s | Papp at 3 h, 10 µM ([2]; MDCK): 0.5 ×10⁻⁶ cm/s | Papp A→B at 3 h, 10 µM [2]: 0.48 ×10⁻⁶ cm/s

Structure (SMILES): CCOC(=O)[C@@H]1CSCC(=O)N[C@H](CC)C(=O)N(CC(C)C)CC(=O)N[C@@H](CC(C)C)C(=O)N2CCC[C@@H]2C(=O)N(C)[C@@H](C)C(=O)N[C@H](CC(C)C)C(=O)N(C)[C@H](C)C(=O)N[C@@H](CC(C)C)C(=O)N1C [B1-4dP, O=C([C@@H](NC([C@H](N(C([C@H](NC([C@@H](N(C([C@@H]1N(CCC1)C([C@@H](NC(CN2CC(C)C)=O)CC(C)C)=O)=O)C)C)=O)CC(C)C)=O)C)C)=O)CC(C)C)N([C@@H](CSCC(N[C@H](CC)C2=O)=O)C(OCC)=O)C] ({CH2CO}-[dAbu][Nleu]L[dP][NMeA][dL][dNMeA]L[NMeC]-OEt; thioether N-9)
Papp at 10 µM ([1]; pH 7.4, PAMPA Papp): 0.1 ×10⁻⁶ cm/s | Papp at 10 µM ([1]; pH 7.4, PAMPA Pe_avg): 0.213 ×10⁻⁶ cm/s | Papp A→B at 3 h, 10 µM [2]: 0.0274 ×10⁻⁶ cm/s

Structure (SMILES): CCOC(=O)[C@@H]1CSCC(=O)N[C@H](CC)C(=O)N(CC(C)C)CC(=O)N[C@@H](CC(C)C)C(=O)N(C)[C@H](C)C(=O)N(C)[C@@H](C)C(=O)N[C@@H](CC(C)C)C(=O)N(C)[C@H](C)C(=O)N[C@@H](CC(C)C)C(=O)N1C [B1-6L, O=C([C@@H](NC([C@H](N(C([C@@H](NC([C@@H](N(C([C@H](N(C)C([C@@H](NC(CN1CC(C)C)=O)CC(C)C)=O)C)=O)C)C)=O)CC(C)C)=O)C)C)=O)CC(C)C)N([C@@H](CSCC(N[C@H](CC)C1=O)=O)C(OCC)=O)C] ({CH2CO}-[dAbu][Nleu]L[dNMeA][NMeA]L[dNMeA]L[NMeC]-OEt; thioether N-9)
Papp at 10 µM ([1]; pH 7.4, PAMPA Papp): 0.7 ×10⁻⁶ cm/s | Papp at 10 µM ([1]; pH 7.4, PAMPA Pe_avg): 0.738 ×10⁻⁶ cm/s | Papp at 3 h, 10 µM ([2]; MDCK): 0.4 ×10⁻⁶ cm/s | Papp A→B at 3 h, 10 µM [2]: 0.39 ×10⁻⁶ cm/s

Structure (SMILES): NC(=O)N1c2ccccc2C=Cc2ccccc21 [Carbamazepine]
Papp at 10 µM ([3]; Lipo expt. group A1): 5.9 ± 0.3 ×10⁻⁶ cm/s | Papp at 10 µM ([3]; Lipo expt. group A2): 6 ± 0.4 ×10⁻⁶ cm/s | Papp at 10 µM ([3]; Lipo expt. group B1): 5.8 ± 0.4 ×10⁻⁶ cm/s | Papp at 10 µM ([3]; Lipo expt. group B2): 6.3 ± 0.2 ×10⁻⁶ cm/s | Papp at 10 µM ([3]; Lipo expt. group C1): 6.8 ± 0.1 ×10⁻⁶ cm/s | Papp at 10 µM ([3]; Lipo expt. group C2): 6 ± 0.1 ×10⁻⁶ cm/s | Papp at 10 µM ([3]; StereoA expt. group A2D): 4.4 ± 0.1 ×10⁻⁶ cm/s | Papp at 10 µM ([3]; StereoA expt. group A2L): 4.4 ± 0.1 ×10⁻⁶ cm/s | Papp at 10 µM ([3]; StereoA expt. group ADD): 4.2 ± 0.1 ×10⁻⁶ cm/s | Papp at 10 µM ([3]; StereoA expt. group ADL): 4.3 ± 0.2 ×10⁻⁶ cm/s | Papp at 10 µM ([3]; StereoA expt. group ALD): 4.3 ± 0.1 ×10⁻⁶ cm/s | Papp at 10 µM ([3]; StereoA expt. group ALL): 5.1 ± 0.3 ×10⁻⁶ cm/s | Papp at 10 µM ([3]; StereoB expt. group B2D): 6.3 ± 1.7 ×10⁻⁶ cm/s | Papp at 10 µM ([3]; StereoB expt. group B2L): 5.6 ± 0.2 ×10⁻⁶ cm/s | Papp at 10 µM ([3]; StereoB expt. group BDD): 5.5 ± 0.1 ×10⁻⁶ cm/s | Papp at 10 µM ([3]; StereoB expt. group BDL): 5.8 ± 0.1 ×10⁻⁶ cm/s | Papp at 10 µM ([3]; StereoB expt. group BLD): 5.5 ± 0.1 ×10⁻⁶ cm/s | Papp at 10 µM ([3]; StereoB expt. group BLL): 5.8 ± 0.2 ×10⁻⁶ cm/s

Structure (SMILES): CCOC(=O)[C@@H]1CSCC(=O)N[C@H](CC)C(=O)N(C)[C@@H](C)C(=O)N[C@H](CC(C)C)C(=O)N(C)[C@H](C)C(=O)N(CC)CC(=O)N[C@@H](CC(C)C)C(=O)N(C)[C@@H](C)C(=O)N[C@@H](CC(C)C)C(=O)N1C [JF206_A2D_DDLL_Ethyl] ({CH2CO}-[dAbu][NMeA][dL][dNMeA][NEtG]L[NMeA]L[NMeC]-OEt; thioether N-9)
PAMPA Pe_avg [3]: 0 ×10⁻⁶ cm/s

Structure (SMILES): CCOC(=O)[C@@H]1CSCC(=O)N[C@H](CC)C(=O)N(C)[C@@H](C)C(=O)N[C@H](CC(C)C)C(=O)N(C)[C@H](C)C(=O)N(CC(C)C)CC(=O)N[C@@H](CC(C)C)C(=O)N(C)[C@@H](C)C(=O)N[C@@H](CC(C)C)C(=O)N1C [JF206_A2D_DDLL_Isobutyl] ({CH2CO}-[dAbu][NMeA][dL][dNMeA][Nleu]L[NMeA]L[NMeC]-OEt; thioether N-9)
PAMPA Pe_avg [3]: 0 ×10⁻⁶ cm/s

Structure (SMILES): CC(C)NCC(O)COc1cccc2ccccc12 (stereo not drawn) [Propranolol]
Papp at 10 µM ([3]; Lipo expt. group A1): 9.1 ± 0.4 ×10⁻⁶ cm/s | Papp at 10 µM ([3]; Lipo expt. group A2): 9.2 ± 0.9 ×10⁻⁶ cm/s | Papp at 10 µM ([3]; Lipo expt. group B2): 8.8 ± 0.2 ×10⁻⁶ cm/s | Papp at 10 µM ([3]; Lipo expt. group C1): 9.8 ± 0.2 ×10⁻⁶ cm/s | PAMPA Papp ([3]; Lipo expt. group B1): 7.7 ± 0.8 x10-6 cm/s | PAMPA Papp ([3]; Lipo expt. group C2): 9.4 ± 0.4 x10-6 cm/s

Now from value to compound:

%R_avg [4]: 7.5% | Papp at 10 µM [1, 6]: 0.2 ×10⁻⁶ cm/s | Papp A→B at 3 h, 10 µM ([2]; MDCK): 5.1 ×10⁻⁶ cm/s | solubility kinetic at 24 h [5]: 10 µM (≈ 10.3 µg/mL)
Structure (SMILES): CCC[C@@H]1NC(=O)[C@H](C)N(C)C(=O)[C@H](CC(C)C)NC(=O)CSC[C@@H](C(=O)OCC)N(C)C(=O)[C@H](CC(C)C)NC(=O)[C@H](C)N(C)C(=O)[C@H](CC2CCCCC2)NC(=O)CN(CC)C(=O)[C@H]2CCCN2C1=O [LA09, O=C(N(C)[C@H](C(OCC)=O)CSCC(N[C@H](C(N(C)[C@@H](C)C(N[C@@H](CCC)C(N1[C@H](CCC1)C(N(CC)CC(N[C@H]2CC3CCCCC3)=O)=O)=O)=O)=O)CC(C)C)=O)[C@H](CC(C)C)NC([C@H](C)N(C)C2=O)=O] ({CH2CO}-L[NMeA][Nva][dP][NEtG][Cha][NMeA]L[NMeC]-OEt; thioether N-9)

Papp at 10 µM ([1]; pH 7.4, PAMPA Papp): 3.1 ×10⁻⁶ cm/s | Papp at 10 µM [1, 6]: 2.2 ×10⁻⁶ cm/s | Papp A→B at 3 h, 10 µM ([2]; MDCK): 3.2 ×10⁻⁶ cm/s | Papp at 3 h, 10 µM ([2]; MDCK): 3.2 ×10⁻⁶ cm/s | Papp A→B at 3 h, 10 µM [2]: 3.15 ×10⁻⁶ cm/s | solubility kinetic at 24 h [5]: 132 µM (≈ 133 µg/mL)
Structure (SMILES): CCC[C@@H]1NC(=O)CN(CCC)C(=O)[C@H](CC(C)C)NC(=O)CSC[C@@H](C(=O)OCC)N(C)C(=O)[C@H](CC(C)C)NC(=O)[C@H](C)N(C)C(=O)[C@H](CC(C)C)NC(=O)[C@H](C)N(C)C(=O)[C@H]2CCCN2C1=O [LB07, O=C(N(C)[C@H](C(OCC)=O)CSCC(N[C@H](C1=O)CC(C)C)=O)[C@H](CC(C)C)NC([C@H](C)N(C)C([C@H](CC(C)C)NC([C@H](C)N(C)C([C@@H]2N(C([C@H](CCC)NC(CN1CCC)=O)=O)CCC2)=O)=O)=O)=O] ({CH2CO}-L[NPrGly][Nva][dP][NMeA]L[NMeA]L[NMeC]-OEt; thioether N-9)

%R_avg [4]: 6.4% | Papp at 10 µM [1, 6]: 1.4 ×10⁻⁶ cm/s | Papp A→B at 3 h, 10 µM ([2]; MDCK): 4.4 ×10⁻⁶ cm/s | solubility kinetic at 24 h [5]: 19 µM (≈ 19.7 µg/mL)
Structure (SMILES): CCC[C@@H]1NC(=O)CN(CC)C(=O)[C@H](CC(C)C)NC(=O)CSC[C@@H](C(=O)OCC)N(C)C(=O)[C@H](CC(C)C)NC(=O)[C@H](C)N(C)C(=O)[C@H](CC2CCCCC2)NC(=O)[C@H](C)N(C)C(=O)[C@H]2CCCN2C1=O [LB09, O=C(N(C)[C@H](C(OCC)=O)CSCC(N[C@H](C1=O)CC(C)C)=O)[C@H](CC(C)C)NC([C@H](C)N(C)C([C@H](CC2CCCCC2)NC([C@H](C)N(C)C([C@@H]3N(C([C@H](CCC)NC(CN1CC)=O)=O)CCC3)=O)=O)=O)=O] ({CH2CO}-L[NEtG][Nva][dP][NMeA][Cha][NMeA]L[NMeC]-OEt; thioether N-9)
